The record followed here is patent publication US20110212475A1, “Fluorescently Or Spin-Labeled Kinases For Rapid Screening And Identification Of Novel Kinase Inhibitor Scaffolds” (priority 2008, published 2011).

A value given as a limit tells only on which side of the number the result lay.

The target in test [1] is T1, p38α (Homo sapiens, UniProt Q16539, A172C/C119S/C162S/F327L).
T1 construct: His-tag with PreScission site (N, cleaved yes); GST (N); made in house; host or cells: E. coli BL21(DE3)
Briefly: ac-p38α real-time fluorescence measurements of binding and dissociation kinetics. The settings on record: for t1/2 of dissociation: t1/2 = ln 2/kobs; for real-time fluorescence response upon addition to ac-p38α: cuvette method, acrylodan emission at 468 nm. The method, then: The conditions for such measurements are currently being further optimized (buffer, temperature, protein and inhibitor concentrations, length of incubation).
The addition of excess kinase causes the inhibitor to redistribute, resulting in a net dissociation of inhibitor from ac-p38α and a fluorescence increase which was fit to a first-order function.
After measuring koff for allosteric compounds, Applicants established conditions for measuring the kon of the same compounds. This was accomplished using the cuvette method by adding various concentrations of inhibitor to ac-p38α and fitting the fluorescence decay to a first-order function.

In test [2] the target is p38α (Homo sapiens, UniProt Q16539). The experiment in a line: HTRF kinase assay (CisBio), activity-based, p38α. The settings on record: compounds HTS 1-15. It counts as biochemical. A general note: Time-resolved FRET reads energy transfer from a long-lived donor to a nearby acceptor.
The target in test [3] is T1, p38α. Briefly: HTS screen with acrylodan-labeled p38α, 384-well secondary screen for Kd. Format: binding. The settings on record: compounds HTS 1-15. The method, then: The complete screen was carried out by first using the labeled kinase binding assay in a 384-well HTS format to initially screen for possible ligands for the DFG-out conformation, or DFG-out binders. This was accomplished by first performing a primary screen at a single concentration of each ligand, followed by a secondary screen over a range of concentrations to directly determine the Kd of each potential hit.
The methods for the setup and execution of the screen are provided below. […] Large volumes of the same buffer were also use to prepare solutions for pipetting background (no labeled kinase added) and screening plates (+100 nM acrylodan-labeled p38α).
An industrial pipetting robot was used to first dispense […] of pre-diluted compounds into a set of two 384-well small volume assay plates. Subsequently, 15 μl of buffer was added to the background plate while the same volume of buffer containing the labeled kinase was added to the screening plate to detect DFG-out binders. […] A Tecan Safire^2 instrument was used to measure the fluorescence read-out in the 384-well plate format.
A secondary screen was carried out also in 384-well plates using a range of concentrations (100 nM to 50 μM) of each ligand in order to generate binding curves or identify false hits which were picked up due to high degrees of fluorescence interference. […] As before, large volumes of the same buffer were also used to prepare solutions for pipetting background (no labeled kinase added) and screening plates (+100 nM acrylodan-labeled p38α). The pipetting robot was used to first dispense 3.5 μl of pre-diluted compounds into a set of two 384-well small volume assay plates. Each plate contained no more than 7 different compounds identified in the primary screen, each screened at 10 concentrations (100 nM to 50 μM) and 4 wells per concentration. Subsequently, 3.5 μl of buffer was added to the background plate while the same volume of buffer containing the labeled kinase was added to the screening plate. Plates were sealed, incubated and measured as described for the primary screen. […] An exemplary sample plate layout is shown below.
Where indicated, binding curves were also plotted as % p38α bound by the ligand. The % p38α bound is calculated as follows: […]

In test [4] the target is T1, p38α. The experiment in a line: acrylodan-labeled p38α (ac-p38α) fluorescence binding assay, endpoint Kd measurements. The settings on record: for Kd: pyrazolourea derivatives of BIRB-796, 50 nM ac-p38α, cuvettes.
For test [5], the system named is PC3 cells. The experiment in a line: immunoblot analysis of pSrc and pFAK in PC3 cells. Format: cell-based. The settings on record: 5 hr treatment; 11c 1, 2, 5, 10 μM, dasatinib 100 nM. How it is done:
(§1) PC3 and DU145 were generously provided by Dr. Roman Thomas (Max Planck Institute for Neurological Research, Cologne). The cells were cultured in Dulbecco's modified Eagle's medium (DMEM) supplemented with 10% heat-inactivated fetal bovine serum (FBS) and 100 units/mL penicillin/streptomycin. Cells were cultured at 37° C. in humidified air containing 5% CO2. After inhibitor treatment (5 h), the cells were washed twice in cold phosphate-buffered saline (PBS) and then lysed for 10 min on ice in lysis buffer (20 mM Tris-HCl pH 7.5, 150 mM NaCl, 1% Triton, 1 mM Na2EDTA, 1 mM EGTA, 2.5 mM sodium pyrophosphate, 1 mM β-glycerophosphate, 1 mM Na3VO4, 1 μg/mL leupeptin, 1 mM PMSF, and common protease inhibitors). Subsequently, cells were centrifuged for 20 min at 20000×g and 4° C. The supernatant was subjected to immunoblot analysis.
(§2) Protein concentration was measured using a spectrophotometer (ND-1000, peQLab). Equal amounts of protein were separated by SDS-PAGE and transferred to nitrocellulose membranes. […] After washing, blots were incubated with secondary antibodies and then detected on film using the enhanced chemiluminescence (ECL) detection system.
(§3) Applicants monitored the phosphorylation state of Y416—an autophosphorylation site in the activation loop of cSrc—and Y576/Y577—two residues in the activation loop of focal adhesion kinase (FAK). […]
For orientation: A western blot detects proteins with antibodies after separation by electrophoresis.

The subject of test [6] is DU145 cells. The experiment in a line: immunoblot analysis of pSrc and pFAK in DU145 cells. The settings on record: 5 hr treatment; 11c 1, 2, 5, 10 μM, dasatinib 100 nM. Format: cell-based. How it is done:
as §1, §2, §3

In test [7] the test system is PC3 cells. The experiment in a line: cell-to-cell contacts by light microscopy, PC3 cells. It counts as cell-based. The settings on record: 24 hours treatment; 11c 10 μM, dasatinib 100 nM. The text has this:
(§4) Reduction of cell-to-cell-contacts and cell proliferation in PC3 and DU145 cells by (11c, RL46). […] Total expression of FAK was unchanged while cSrc expression was increased in both cell lines. (b). Cell-to-cell contacts visualized by light microscopy at 10× magnification.

The subject of test [8] is DU145 cells. Briefly: cell-to-cell contacts by light microscopy, DU145 cells. Format: cell-based. The settings on record: 24 hours treatment; 11c 10 μM, dasatinib 100 nM.
Description: as §4

The next test has as its target T2, cSrc (Gallus gallus, UniProt P00523, C277S/C483S/C496S/L407C).
T2 construct: The chicken cSrc gene (residues 251-533); His tag with PreScission site (N, cleaved yes); made in house; host or cells: E. coli BL21(DE3) Codon+RIL
Briefly: acrylodan-labeled cSrc fluorescence binding assay. More on the design: species or system chicken. The settings on record: any concentration.

p38α (Homo sapiens, UniProt Q16539), sequence (Q16539 whole entry): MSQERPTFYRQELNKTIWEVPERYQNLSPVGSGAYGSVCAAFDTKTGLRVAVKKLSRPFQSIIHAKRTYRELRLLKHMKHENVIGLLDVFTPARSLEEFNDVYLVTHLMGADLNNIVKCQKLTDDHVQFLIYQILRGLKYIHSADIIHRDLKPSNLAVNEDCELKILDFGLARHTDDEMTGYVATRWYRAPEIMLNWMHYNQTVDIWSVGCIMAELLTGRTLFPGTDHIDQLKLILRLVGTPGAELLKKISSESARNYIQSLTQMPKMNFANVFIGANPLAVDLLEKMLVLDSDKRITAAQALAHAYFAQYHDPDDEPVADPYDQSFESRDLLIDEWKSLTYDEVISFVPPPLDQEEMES
T1 sequence (Q16539 whole entry C119S/C162S/A172C/F327L): as the sequence (Q16539 whole entry) above, with C119S, C162S, A172C, F327L counted along it
Description for cSrc: Acrylodan-labeled cSrc (50 nM) was placed into cuvettes with a rapidly stirring mini stir bar while monitoring acrylodan fluorescence (left panel).
Crystal structures of chicken cSrc (kinase domain) in the DFG-in and DFG-out conformations were closely examined to identify a suitable fluorophore attachment site near the N-terminal end of the activation loop of cSrc which would report the binding of allosteric inhibitors by sensing changes in the activation loop conformation. Care was taken to not choose residues that were known phosphorylation sites or other sites that appeared to be critical to maintaining protein stability. A Cys was introduced into the chosen position (L407C) by site-directed mutagenesis while non-specific labeling was minimized by conservatively mutating other solvent exposed Cys into Ser (C277S, C483S, C496S).
Pure cSrc kinase containing the labeling site Cys mutation (L407C) and acrylodan (dissolved in DMF) were combined in buffer (pH 7.0) at a ratio of 1:1.5 protein:fluorophore and allowed to react in the dark overnight at 4° C. […] The labeled cSrc was then aliquoted, kept dark and frozen at −20° C.
Screening initiatives were carried out for acrylodan-labeled cSrc in 384-well plates. Stocks of candidate compounds were prepared in DMSO at 20× the final desired concentration. […]

`Cc1cccc(-n2nc(C(C)(C)C)cc2NC(=O)Nc2ccc(Cl)cc2)c1` [12a, RL29] displayed a t1/2 of dissociation at p38α [1] of 52.3 min.

Take `Fc1ccc(-c2nc3n(c2-c2ccncc2)CCS3)cc1` [SKF86002, reference compound]: at p38α [1], the “real-time fluorescence response upon addition to ac-p38α” value was “instantaneous response”.

Regarding `NS(=O)(=O)c1ccc(CCNc2nc3c(-c4cccc(C(F)(F)F)c4)nnn3c3ccccc23)cc1` [HTS 6], the IC50 (in general, the concentration that gives 50% inhibition) against p38α [2] is > 50 µM. The Kd – broadly, a measure of binding affinity in units of concentration – on p38α [3] amounted to 0.301 ± 0.059 µM.

For `Cc1ccc(-n2nc(C(C)(C)C)cc2NC(=O)Nc2ccc(Cl)cc2)cc1` [12c, RL17], at p38α [4] (read-out: Kd), the Kd was determined as 0.034 µM.

`O=C(CSc1cn(CCNC(=O)c2cccc(C(F)(F)F)c2)c2ccccc12)Nc1ccc2c(c1)OCCO2` [HTS 13] gave an IC50 against p38α [2] of 1.1 ± 0.4 µM.

Regarding `Cc1ccc(-n2nc(C(C)(C)C)cc2NC(=O)Nc2cccc3ccccc23)cc1` [14a, RL36], the Kd on p38α [4] (read-out: Kd) stood at 0.011 µM.

Regarding `Brc1cccc(-c2nc3cnccn3c2NC2CCCC2)c1` [HTS 15], binding on p38α [3] was characterised by a dissociation constant (Kd) of 27.5 ± 5.3 µM.

Turning to `Fc1cccc(COc2ccc(Nc3ncnc4ccccc34)cc2Cl)c1` [HTS 4], the IC50 on p38α [2] was > 50 µM. Also, at p38α [3], the Kd was 10.3 ± 2.2 µM.

Take `CC(=O)Nc1ccc(C(=O)Nc2ccc(-c3nc4cc(NC(=O)c5ccc(NC(C)=O)cc5)ccc4[nH]3)cc2)cc1` [HTS 7]: on p38α [2], inhibition was half-maximal at 15.3 ± 2.8 µM (IC50). The Kd at p38α [3] is 6.18 ± 2.31 µM.

`Cc1ccccc1-n1nc(C(C)(C)C)cc1NC(=O)Nc1ccc(Cl)cc1` [12D, RL15]: the Kd at p38α [4] (read-out: Kd) was 0.347 µM.

On p38α [1], `CNC(=O)c1cc(Oc2ccc(NC(=O)Nc3ccc(Cl)c(C(F)(F)F)c3)cc2)ccn1` [sorafenib, reference compound] registered a t1/2 of dissociation of 2.4 min.

Regarding `COC(=O)C1=CO[C@@H](C)[C@H]2CN3CCc4c([nH]c5cc(OC)ccc45)[C@H]3C[C@@H]12` [HTS 3], at p38α [2], the IC50 came to 18.3 ± 7.2 µM. On p38α [3], binding was put at a Kd of 2.2 ± 0.11 µM.

For `O=C(CN1C(=O)c2cccc3cccc1c23)Nc1cccc(C(F)(F)F)c1` [HTS 5], the IC50 at p38α [2] was > 50 µM. The compound also showed a Kd at p38α [3] of 3.1 ± 0.91 µM.

For the compound `Cc1ccc(NCc2cc3cc4c(cc3n(CC(=O)Nc3ccccc3F)c2=O)OCCO4)cc1` [HTS 10], inhibition on p38α [2] was half-maximal at 31.3 ± 17.2 µM (IC50). Moreover, the affinity at p38α [3], expressed as Kd, was 29.4 ± 4 µM.

`O=C(c1ccc(CSc2nc3ccncc3[nH]2)cc1)N1CCC(Cc2ccccc2)CC1` [HTS 11]: at p38α [2], the IC50 was found to be 2.6 ± 0.92 µM. Further, the Kd on p38α [3] was 2.3 ± 0.57 µM.

On to `Cc1nc(Nc2ncc(C(=O)Nc3c(C)cccc3Cl)s2)cc(N2CCN(CCO)CC2)n1` [Dasatinib], for which the “real-time fluorescence response upon addition to ac-p38α” value at p38α [1] is on record as “instantaneous fluorescence response”. The “pSrc and pFAK levels” value with PC3 cells [5] and in the test on DU145 cells [6] was “markedly reduced” in each case. Also, the “cell-to-cell contacts and intact cells” value was “markedly reduced cell-to-cell-contacts and fewer intact cells” with PC3 cells [7]; “markedly reduced cell-to-cell-contacts and fewer intact cells” in the test with DU145 cells [8].

Regarding `Cc1ccc(C(=O)NCCC23CC4CC(CC(C4)C2)C3)cc1NC1=NC2CS(=O)(=O)CC2S1` (stereo not drawn) [HTS 12], at p38α [1] (HTS hit, real-time kinetic measurement), the t1/2 of binding was ~0.633 min. In addition, it took 11 ± 1.5 µM to reach half-maximal inhibition against p38α [2] (IC50). The compound further registered a Kd at p38α [3] of 1.3 ± 0.08 µM.

As to `Cc1ccc(-n2nc(C(C)(C)C)cc2NC(=O)Nc2ccc(Cl)cc2)cc1Cl` [12b, RL18], the equilibrium dissociation constant (Kd) at p38α [4] (read-out: Kd) was found to be 0.018 µM.

At p38α [1], `Cc1ccc(-n2nc(C(C)(C)C)cc2NC(=O)Nc2ccc(OCCN3CCOCC3)cc2)cc1` [15, RL39] yielded a t1/2 of dissociation of 11.2 min.

At p38α [3], `Clc1cccc(-c2nc3cnccn3c2NC2CCCCC2)c1` [HTS 14] had a dissociation constant Kd of 100 ± 5.8 µM.

Regarding `CCOC(=O)c1c(C)c(C(=O)N2CCN(Cc3ccccc3)CC2)c(C)n1CC` [HTS 8], the IC50 at p38α [2] was determined as 2.6 ± 0.9 µM.

On p38α [2], `CCc1ccc(NCc2cc3cc(OC)c(OC)cc3n(CC(=O)Nc3cc(C)ccc3C)c2=O)cc1` [HTS 9] returned an IC50 of 25.6 ± 4.7 µM. For the same compound, the Kd at p38α [3] was 24.9 ± 4.9 µM.

Turning to `CC(C)(C)c1cc(NC(=O)Nc2ccc(Cl)cc2)n(-c2ccc(C(F)(F)F)cc2Cl)n1` [7, RL19], the “fluorescence response of ac-p38α” value on p38α [4] (endpoint measurements) is “complete lack of fluorescence response”. In addition, on p38α [4], the Kd entry is listed as “No Binding”. Besides, at cSrc, the fluorescence ratio response entry is listed as “did not respond”.
